Measurements reported in patent US20240216513A1, “FATTY ACID-BIFUNCTIONAL DEGRADER CONJUGATES AND THEIR METHODS OF USE” (Novartis AG, priority 2021, published 2024).
Where two headings read alike, the source gives them in different places.

Key:
[1] = BTK FAC plasma stability assay, PBS buffer arm; format: physicochemical; conditions: incubation to 24 h
In short: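 Compound from a 500 µM acetonitrile:water working solution was spiked into K3-EDTA plasma or Dulbecco's PBS and incubated with shaking at 38 °C. Samples taken at 0, 2, 6 and 24 h were precipitated with cold acetonitrile containing glyburide internal standard. Semi-quantitative LC-MS/MS used analyte:internal standard peak area ratios.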

[2] = BTK FAC plasma stability assay, dog plasma; format: in vitro ADME
[3] = In vivo pharmacokinetic study in rats (i.v. or s.c.), FAC and payload in blood; set-up: species or system rat; conditions: for AUC: male, Sprague-Dawley, rat, whole blood, 1 umol/kg
Experimental: Pharmacokinetic studies were conducted in male C57/B16 mice; male Sprague-Dawley rats; male Beagle dogs and male Cynomolgus monkeys. 3 animals per group were used for each study performed. All studies were performed in accordance with local animal welfare regulations.
[…] Serial 30 µL blood samples were collected via venipuncture of the tail vein in mouse, and via the cannulated jugular vein in rats at defined timepoints to 216 hours (into EDTA coated tubes).
Each blood sample was precipitated with acetonitrile containing internal standard; samples were mixed and centrifuged (20 minutes 4000 RPM at 4° C.). Supernatant was transferred to a microwell plate and evaporated under nitrogen at 60° C. Residue was resuspended in acetonitrile/water (7:3 v/v); plate sealed and transferred to an ultrasonic bath for 3 minutes, prior to analysis. Quantification was performed by LC-MS/MS (SciexAP16500 Q-trap, Shimadzu Nexera X2) using a Phenomenex Polar RP analytical column (2.5 μm particle size; 50×2 mm). The mobile phase consisted of solvent A (0.1% formic acid in water) and solvent B (0.1% formic acid in acetonitrile). The fatty acid conjugate and API were detected using multiple reaction monitoring.
Data analysis and calculation of non-compartmental pharmacokinetic parameters was
performed using an in-house analysis. Following intravenous administration whole blood clearance was calculated by the dose administered divided by AUC0-inf. Volume of distribution at steady state was calculated as MRT*CL, where MRT is the mean residence time, calculated by AUMC0-inf/AUC0-inf. The half-life (t1/2) of the terminal elimination phase was calculated by 0.693/λ. For both intravenous and subcutaneous administration, the systemic exposures were determined by calculating the area under the blood concentration time curve (AUC) from time zero to the last observed quantifiable concentration (AUClast) by using the linear trapezoidal method and normalised to dose. Extrapolated AUC (AUC0-inf) is calculated by addition of AUClast and AUCtlast-inf; where AUCtlast-inf is calculated based on Clast/λ. The slope of the terminal elimination phase was estimated by linear regression of the terminal data points (minimum 3 points) from a natural log concentration versus time plot of the data. Bioavailability was calculated as the dose normalized ratio of […] AUCinf to intravenous AUCinf (100*[SC AUCinf/SC dose]/[IV AUCinf/IV dose]). Following subcutaneous administration Cmax is calculated as the average maximum observed peak concentration and Tmax is the time associated with the determined Cmax.
For PK experiments, non-tumor bearing mice or rats were treated once (10 mL/kg) with a compound either i.v. or s.c. Serial blood samplings from the tail vein (5-20 μl) were collected during the course of the experiment. For PK/PD experiments in tumor-bearing mice, compound was administered once (10 mL/kg) either i.v. or s.c. Animals were randomized into groups of n=3 and tissue samples were collected at several time points. At the times indicated, animals were anaesthetized by exposure to 2-3% v/v isoflurane in medical oxygen. They were sacrificed without recovering from anesthetic after blood sampling into commercially prepared EDTA coated tubes (Milian, cat #TOM-14C) in order to extract plasma. The tissues were excised, weighted and rapidly frozen in liquid nitrogen. Later, tumors were cryogenic dry pulverized with the CryoPrep™ system (model CP-02, Covaris). For efficacy experiments in ectopic tumor-bearing mice, animals were randomized into groups of n=6 for a mean tumor size of 100 mm^3 and compound was administered either i.v. q3w or s.c. q2w. When implanted in brain, animals were randomized into groups of n=4 for a mean bioluminescence of 1.0-2.0E+06 [p/s]/[ρW/cm^2] and compound was administered i.v. qw. Tumor response were reported with the measures of tumor volumes or bioluminescence from the treatment start. […]

In the case of `COc1ccc(C(=O)N2CCC3(CCN(CCc4ccc(-c5cc6c(-c7cc(F)cc(NC(=O)c8ccc(C(C)(C)O)cc8F)c7C)ncnc6[nH]5)cc4)CC3)CC2)cc1N1CCC(=O)NC1=O` [Compound V, N-(3-(6-(4-(2-(9-(3-(2,4-Dioxotetrahydropyrimidin-1(2H)-yl)-4-methoxybenzoyl)-3,9-diazaspiro[5.5]undecan-3-yl)ethyl)phenyl)-7H-pyrrolo[2,3-d]pyrimidin-4-yl)-5-fluoro-2-methylphenyl)-2-fluoro-4-(2-hydroxypropan-2-yl)benzamide], the “Plasma stability (h) PBS” value [1] is reported as greater than 48 h, the “Plasma stability (h) dog” value [2] is reported as greater than 48 h and the “Payload C0-uM (unconjugated degrader dosed, second payload cell)” value ([3]; API i.v., species taken as rat, listed as note (1 umol/kg)) is reported as 1.1 µM. For the same molecule, the AUC ([3]; iv, API i.v., species taken as rat, listed as note (1 umol/kg), read-out: Payload AUC-uM.h (unconjugated degrader dosed, second payload cell)) was 0.57 µM·h and the AUC ([3]; sc, subcutaneous dosing, unconjugated Compound V at 1 umol/kg, read-out: Payload AUC) was 0.57 µM·h.
